Where two headings read alike, the source gives them in different places.
How the values were obtained:
[1] = molecular target: T1, T4 DNA ligase (Enterobacteria phage T4, UniProt P00970); type: biochemical; parameters: purchased NEB (New England Biolabs), Ipswich, Mass. #M0202
T1 sequence (P00970 1-487): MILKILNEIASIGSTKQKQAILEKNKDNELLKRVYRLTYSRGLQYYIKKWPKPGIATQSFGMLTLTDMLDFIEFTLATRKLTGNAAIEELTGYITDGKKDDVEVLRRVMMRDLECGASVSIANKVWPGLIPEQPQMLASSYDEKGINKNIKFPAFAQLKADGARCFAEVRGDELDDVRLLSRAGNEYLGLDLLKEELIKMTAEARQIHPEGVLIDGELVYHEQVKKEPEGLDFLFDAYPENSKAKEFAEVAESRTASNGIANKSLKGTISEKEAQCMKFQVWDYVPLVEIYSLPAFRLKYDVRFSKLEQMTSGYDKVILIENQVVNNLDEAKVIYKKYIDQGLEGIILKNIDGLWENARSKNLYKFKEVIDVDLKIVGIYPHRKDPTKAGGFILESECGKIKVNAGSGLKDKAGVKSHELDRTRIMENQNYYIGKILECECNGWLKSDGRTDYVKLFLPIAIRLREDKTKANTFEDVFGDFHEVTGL
Experimental: (§1) All were tested side-by-side using two ligation test systems which were: (a) cloning of a 500 bp amplicon made by Taq DNA polymerase into a T-tailed vector; and (b) recircularization of an AhdI-linearized plasmid. Both ligation test systems used DNA with single-base overhangs.
(§2) The reaction mixtures contained DNA at 50-100 ng and 1,2-PrD at different concentrations. 1 μl of regular concentration (NEB, Ipswich, Mass., #M0202; 400 units) or 1 μl of high concentration T4 DNA ligase (NEB, Ipswich, Mass., #M0202; 2000 units) was then added to a final volume of 21 μl in 1×T4 DNA Ligase Buffer (NEB, Ipwich, Mass., #B0202) or 1× Quick Ligase™ Buffer (NEB, Ipswich, Mass., #B2200).
(§3) A standard assay uses 100 ng DNA, 1 μl of T4 DNA ligase, 21 μl 1×T4 DNA ligase buffer and varying amounts of enhancer.
(§4) Ligation reactions were incubated for 10 min at room temperature (25° C.) unless otherwise stated, then placed on ice for 2 min. In some experiments the ligase was heat-killed by incubation at 65° C. for 20 min. The ligation reactions were analyzed by 1% agarose gel electrophoresis to identify DNA species and determine the efficiency of […].
(§5) A volume of 2 μl from each ligation reaction was incubated with 50 μl of chemically competent (NEB, Ipswich, Mass., #C2987I) or electrocompetent (NEB, Ipswich, Mass., #C2989K) DH5 alpha E. coli cells.
(§6) For chemically competent cell transformations, the cell-DNA mixture was incubated on ice for 30 min, heat-shocked at 42° C. for 30 sec, then returned to ice for 5 min. A volume of 950 μl SOC medium (2% vegetable peptone or Tryptone, 0.5% yeast extract, 10 mM NaCl, 2.5 mM KCl, 10 mM MgCl2, 10 mM MgSO4 and 20 mM glucose) was added to the cell-DNA mixture, followed by a one hr 37° C. outgrowth period with agitation. A volume of 25-50 μl of appropriately diluted cells in SOC was spread onto Rich Agar plates (composition per liter: 10 g soy peptone, 5 g yeast extract, 10 g NaCl, 1 g MgCl2-6H2O, 1 g dextrose, 15 grams agar) supplemented with 100 μg/ml ampicillin. Plates were inverted and incubated for 16 hrs at 37° C., followed by quantification of total colony numbers.

[2] = molecular target: T1, T4 DNA ligase; test: Cloning of a 500 bp amplicon made by Taq DNA polymerase into a T-tailed vector (ligation test system a); type: biochemical; parameters: purchased NEB (New England Biolabs), Ipswich, Mass. #M0202; conditions: no addition = 1-fold, single-base overhangs
Experimental: as §1, §2, §3, §4, §5, §6

[3] = tested on: ligase; conditions: Xiao et al. 2007; nick junctions in double-stranded DNA; cited from earlier work
[4] = molecular target: T1, T4 DNA ligase; conditions: Pheiffer et al. 1983; cited from earlier work
[5] = enhancer at 12%, no addition = 1-fold, single-base overhangs

| Compound | Cloning Enhancement ([2]; enhancer at 12%) | Effect on efficiency of ligation [3] | Recircularization Enhancement [1, 5] | other results |
| --- | --- | --- | --- | --- |
| CCO [Ethanol] | 25-fold | – | – | Recircularization Enhancement [1]: 9-fold |
| C[S+](C)[O-] [DMSO, dimethyl sulfoxide] | – | inhibited the efficiency of the ligation reaction at nick junctions in double-stranded DNA | – | Recircularization Enhancement ([1]; enhancer at 6%, no addition = 1-fold, single-base overhangs): 9-fold; Cloning Enhancement ([2]; enhancer at 6%): 12-fold |
| PEG 400 | – | – | – | Effect on blunt-end ligation [4]: little effect on ligation |
| OCCO [Ethylene glycol] | 10-fold | – | – | Recircularization Enhancement [1]: 8-fold |
| OCC(O)CO [Glycerol] | 4-fold | inhibited the efficiency of the ligation reaction at nick junctions in double-stranded DNA | 5-fold | – |
| NC=O [formamide, reference compound] | – | inhibited the efficiency of the ligation reaction at nick junctions in double-stranded DNA | – | – |
| CC(C)O [Isopropanol] | 16-fold | – | 10-fold | – |
| OCCCO [1,3-PrD, 1,3-propanediol] | 7-fold | – | 9 fold | – |
| PEG 200 | – | – | – | Effect on blunt-end ligation [4]: little effect on ligation |
| C[N+](C)(C)CC(=O)O [Betaine] | – | – | – | Recircularization Enhancement ([1]; enhancer at 1.3M, no addition = 1-fold, single-base overhangs): 13-fold; Cloning Enhancement ([2]; enhancer at 1.3M): 12-fold |

Source: patent publication US9499811B2, “Ligation enhancement” (New England Biolabs, Inc., priority 2011, dated 2016)
